Laboratory results reported in US20230265116A1, “DEGRADATION OF (EGFR) BY CONJUGATION OF EGFR INHIBITORS WITH E3 LIGASE LIGAND AND METHODS OF USE” (BEIGENE, LTD., priority 2020, published 2023).

Columns and labels:
[1] = molecular target: T1, EGFR L858R/T790M (H1975-clone #36, homozygous) (Homo sapiens, UniProt P00533, L858R/T790M); assay: EGFR degradation HTRF assay, H1975-clone #36 cells; format: cell-based; conditions: H1975 #36, 16h treatment; for Dmax: NCI-H1975, maximum percentage of degradation
T1 construct: designed to specifically target WT EGFR but preserve the L858R/T790M copy; host or cells: H1975-clone #36
Method: H1975-clone #36(L858R/T790M). H1975 cell heterozygously (from ATCC) contains alleles of WT and L858R/T790M EGFR. H1975-clone #36(L858R/T790M) was generated by gene knockout, in which the EGFR targeting sgRNA was designed to specifically target WT EGFR but preserve the L858R/T790M copy. Followed by the gene knockout, the edited H1975 cells were seeded in 96 well plates at the concentration of 1 cell/well, cultured for about 2 weeks to allow single clones formation. The formed clones were screened by DNA sequencing for the desired edition. H1975-clone #36 was confirmed as a homozygous L858R/T790M EGFR clone.
BaF3 WT(wild type), BaF3-LTC(L858R/T790M/C797S) and BaF3-DTC(Del19/T790M/C797S) cells are treated with compounds diluted in 0.2% DMSO cell culture medium and incubate for 16h, 37° C., 5% CO2, H1975-#36, H1975-#28, H1975-#23 and HCC827 cells are treated with compounds diluted in 0.2% DMSO cell culture medium on day 2, incubate for 16h, 37° C., 5% CO2.the final concentriation of compounds in all assay is start with 10 uM, 5-fold dilution, total 8 doses were included.
After 16h treatment, add HTRF lysis buffer to each well; seal the plate and incubate 1 hour at room temperature on a plate shaker; Once the cells are lysed, 16 μL of cell lysate are transferred to a PE 384-well HTRF detection plate; 4 μL of pre-mixed HTRF antibodies are added to each well; Cover the plate with a plate sealer, spin 1000 rpm for 1 min, Incubate overnight at room temperature; Read on BMG PheraStar with HTRF protocol (337 nm-665 nm-620 nm).
The inhibition (degradation) percentage of the compound was calculated by the following equation: Inhibition percentage of Compound=100-100×(Signal-low control)/(High control-low control), wherein signal=each test compound group
High control=Cell group with added DMSO and without compound, indicating microplate readings without EGFR degradation;
Dmax is the maximum percentage of inhibition (degradation).
The IC50 (DC50) value of a compound can be obtained by fitting the following equation
Y=Bottom+(TOP−Bottom)/(1+((IC50/X)^hillslope))
Wherein, X and Y are known values, and IC50, Hillslope, Top and Bottom are the parameters obtained by fitting with software. Y is the inhibition percentage (calculated from the equation), X is the concentration of the compound; IC50 is the concentration of the compound when the 50% inhibition is reached. The smaller the IC50 value is, the stronger the inhibitory ability of the compound is. Vice versa, the higher the IC50 value is, the weaker the inhibitory ability of the compound is; Hillslope represents the slope of the fitted curve, generally around 1*; Bottom represents the minimum value of the curve obtained by data fitting, which is generally 0%±20%; Top represents the maximum value of the curve obtained by data fitting, which is generally 100%±20%. The experimental data were fitted by calculating and analyzing with Dotmatics data analysis software.

EGFR (HCC827 cells) = molecular target: T2, EGFR (HCC827 cells) (Homo sapiens, UniProt P00533, DEL746-750); assay: EGFR degradation HTRF assay, HCC827 cells; format: cell-based; conditions: HCC827, 16h treatment; for Dmax: maximum percentage of degradation
T2 construct: endogenous in cells; host or cells: HCC827
Method in brief: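 EGFR remaining after a 16 h, 37 °C exposure (8 doses, 5-fold steps from 10 uM final, 0.2% DMSO) was quantified by HTRF antibodies in cell lysate. Percent inhibition relative to DMSO control was fitted by four-parameter logistic to give DC50; Dmax denotes maximal degradation.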

T1 sequence (P00533 25-1210 T790M/L858R): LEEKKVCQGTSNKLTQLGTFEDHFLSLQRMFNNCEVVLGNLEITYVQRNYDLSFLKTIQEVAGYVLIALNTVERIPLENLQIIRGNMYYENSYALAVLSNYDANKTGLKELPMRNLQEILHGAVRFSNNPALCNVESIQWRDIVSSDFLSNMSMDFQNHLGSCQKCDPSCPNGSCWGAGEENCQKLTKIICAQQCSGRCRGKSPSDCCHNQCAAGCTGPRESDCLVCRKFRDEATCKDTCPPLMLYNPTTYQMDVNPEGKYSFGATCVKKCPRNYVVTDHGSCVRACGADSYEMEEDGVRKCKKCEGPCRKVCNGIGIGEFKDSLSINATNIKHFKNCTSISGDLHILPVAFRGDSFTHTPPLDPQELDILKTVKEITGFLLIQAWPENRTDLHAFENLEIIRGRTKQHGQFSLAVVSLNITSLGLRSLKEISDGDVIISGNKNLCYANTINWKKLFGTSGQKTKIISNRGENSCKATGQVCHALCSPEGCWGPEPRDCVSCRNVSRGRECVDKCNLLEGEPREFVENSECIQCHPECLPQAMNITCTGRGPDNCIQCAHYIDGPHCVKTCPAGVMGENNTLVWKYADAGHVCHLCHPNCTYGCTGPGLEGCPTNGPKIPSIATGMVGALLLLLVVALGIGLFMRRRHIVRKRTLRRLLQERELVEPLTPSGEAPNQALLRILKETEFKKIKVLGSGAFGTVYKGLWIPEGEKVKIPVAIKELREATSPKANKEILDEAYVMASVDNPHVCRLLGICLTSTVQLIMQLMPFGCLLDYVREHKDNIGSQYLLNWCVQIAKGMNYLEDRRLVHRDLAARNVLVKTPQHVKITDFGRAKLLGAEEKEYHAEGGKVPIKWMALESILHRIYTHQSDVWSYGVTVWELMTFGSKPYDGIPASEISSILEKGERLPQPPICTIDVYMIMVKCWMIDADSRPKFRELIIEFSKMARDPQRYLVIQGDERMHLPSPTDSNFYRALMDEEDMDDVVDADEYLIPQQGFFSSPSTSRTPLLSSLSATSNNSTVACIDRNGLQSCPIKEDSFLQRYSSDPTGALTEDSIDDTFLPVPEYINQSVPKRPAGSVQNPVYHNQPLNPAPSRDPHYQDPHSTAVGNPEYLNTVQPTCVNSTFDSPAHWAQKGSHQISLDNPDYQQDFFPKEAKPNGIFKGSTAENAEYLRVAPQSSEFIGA
T2 sequence (P00533 with tags, fused parts or gaps DEL746-750): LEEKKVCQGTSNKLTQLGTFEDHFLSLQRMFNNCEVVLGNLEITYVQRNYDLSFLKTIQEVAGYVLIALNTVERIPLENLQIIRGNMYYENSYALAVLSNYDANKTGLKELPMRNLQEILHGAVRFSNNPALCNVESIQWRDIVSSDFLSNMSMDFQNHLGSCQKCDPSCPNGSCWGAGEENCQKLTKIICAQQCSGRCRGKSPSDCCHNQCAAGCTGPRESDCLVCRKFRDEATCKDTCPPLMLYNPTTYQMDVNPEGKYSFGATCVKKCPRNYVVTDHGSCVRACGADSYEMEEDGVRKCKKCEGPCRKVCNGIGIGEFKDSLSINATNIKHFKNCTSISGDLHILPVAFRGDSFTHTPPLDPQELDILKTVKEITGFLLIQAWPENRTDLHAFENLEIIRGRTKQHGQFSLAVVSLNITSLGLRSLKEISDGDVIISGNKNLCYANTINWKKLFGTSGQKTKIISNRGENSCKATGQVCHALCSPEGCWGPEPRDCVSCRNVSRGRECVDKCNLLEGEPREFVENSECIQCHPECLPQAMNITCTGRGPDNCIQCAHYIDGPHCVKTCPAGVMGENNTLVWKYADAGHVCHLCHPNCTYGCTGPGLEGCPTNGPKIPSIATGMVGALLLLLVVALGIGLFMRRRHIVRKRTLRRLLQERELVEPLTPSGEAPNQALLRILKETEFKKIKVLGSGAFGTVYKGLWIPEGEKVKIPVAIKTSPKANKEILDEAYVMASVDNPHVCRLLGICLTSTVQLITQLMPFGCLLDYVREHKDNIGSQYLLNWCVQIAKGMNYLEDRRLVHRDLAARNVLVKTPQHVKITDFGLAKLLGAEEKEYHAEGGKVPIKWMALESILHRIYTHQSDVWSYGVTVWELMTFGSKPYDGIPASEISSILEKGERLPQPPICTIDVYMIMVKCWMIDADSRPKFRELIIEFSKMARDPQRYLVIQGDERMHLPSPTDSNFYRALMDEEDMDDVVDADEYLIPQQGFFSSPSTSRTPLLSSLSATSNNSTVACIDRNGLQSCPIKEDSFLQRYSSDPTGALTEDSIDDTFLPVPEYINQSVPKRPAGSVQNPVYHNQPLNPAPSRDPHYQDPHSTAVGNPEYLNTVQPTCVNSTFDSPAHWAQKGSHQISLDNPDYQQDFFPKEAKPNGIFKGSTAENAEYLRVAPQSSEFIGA

Row | Compound | DC50 [1] | Dmax [1] | DC50 (EGFR (HCC827 cells)) | Dmax (EGFR (HCC827 cells))
1 | COc1cc(N2CCN(CC3CCN(c4ccc(N5CCC(=O)NC5=O)cc4)CC3)CC2)c(C)cc1Nc1ncc(Br)c(Nc2ccc3nccnc3c2P(C)(C)=O)n1 [Example 95, 1-(4-(4-((4-(4-((5-bromo-4-((5-(dimethylphosphoryl)quinoxalin-6-yl)amino)pyrimidin-2-yl)amino)-5-methoxy-2-methylphenyl)piperazin-1-yl)methyl)piperidin-1-yl)phenyl)dihydropyrimidine-2,4(1H,3H)-dione] | 9030 nM | 61.6% | 147 nM | 71.3%
2 | COc1cc(N2CCN(CC3CCN(c4ccc(N5CCC(=O)NC5=O)c(F)c4)CC3)CC2)c(C)cc1Nc1ncc(Br)c(Nc2ccc3nccnc3c2P(C)(C)=O)n1 [Example 96, 1-(4-(4-((4-(4-((5-bromo-4-((5-(dimethylphosphoryl)quinoxalin-6-yl)amino)pyrimidin-2-yl)amino)-5-methoxy-2-methylphenyl)piperazin-1-yl)methyl)piperidin-1-yl)-2-fluorophenyl)dihydropyrimidine-2,4(1H,3H)-dione] | > 10000 nM | 7.3% | 151 nM | 67%
3 | COc1cc(N2CCN(CC3CCN(c4ccc(N5CCC(=O)NC5=O)cc4F)CC3)CC2)c(C)cc1Nc1ncc(Br)c(Nc2ccc3nccnc3c2P(C)(C)=O)n1 [Example 97, 1-(4-(4-((4-(4-((5-bromo-4-((5-(dimethylphosphoryl)quinoxalin-6-yl)amino)pyrimidin-2-yl)amino)-5-methoxy-2-methylphenyl)piperazin-1-yl)methyl)piperidin-1-yl)-3-fluorophenyl)dihydropyrimidine-2,4(1H,3H)-dione] | > 10000 nM | 11.2% | 118 nM | 62.8%
4 | COc1cc(N2CCN(CC3CCN(c4ccc(N5CCC(=O)NC5=O)cc4C)CC3)CC2)c(C)cc1Nc1ncc(Br)c(Nc2ccc3nccnc3c2P(C)(C)=O)n1 [Example 98, 1-(4-(4-((4-(4-((5-bromo-4-((5-(dimethylphosphoryl)quinoxalin-6-yl)amino)pyrimidin-2-yl)amino)-5-methoxy-2-methylphenyl)piperazin-1-yl)methyl)piperidin-1-yl)-3-methylphenyl)dihydropyrimidine-2,4(1H,3H)-dione] | > 10000 nM | 8.3% | 166 nM | 62.3%
5 | COc1cc(N2CCN(CC3CCN(c4ccc(N5CCC(=O)NC5=O)c(C)c4)CC3)CC2)c(C)cc1Nc1ncc(Br)c(Nc2ccc3nccnc3c2P(C)(C)=O)n1 [Example 99, 1-(4-(4-((4-(4-((5-bromo-4-((5-(dimethylphosphoryl)quinoxalin-6-yl)amino)pyrimidin-2-yl)amino)-5-methoxy-2-methylphenyl)piperazin-1-yl)methyl)piperidin-1-yl)-2-methylphenyl)dihydropyrimidine-2,4(1H,3H)-dione] | > 10000 nM | 35.6% | 60.1 nM | 78.5%
6 | COc1cc(N2CCN(CCCC(=O)N[C@H](C(=O)N3C[C@H](O)C[C@H]3C(=O)N[C@@H](C)c3ccc(-c4scnc4C)cc3)C(C)(C)C)CC2)c(C)cc1Nc1ncc(Br)c(Nc2ccc3nccnc3c2P(C)(C)=O)n1 [Example 102, (2S,4R)-1-((S)-2-(4-(4-(4-((5-bromo-4-((5-(dimethylphosphoryl)quinoxalin-6-yl)amino)pyrimidin-2-yl)amino)-5-methoxy-2-methylphenyl)piperazin-1-yl)butanamido)-3,3-dimethylbutanoyl)-4-hydroxy-N—((S)-1-(4-(4-methylthiazol-5-yl)phenyl)ethyl)pyrrolidine-2-carboxamide] | 81.7 nM | 65.1% | 70.1 nM | 75.9%

These reach a lower DC50 [1]. Values come first.

Row | DC50 [1] | Dmax [1] | DC50 (EGFR (HCC827 cells)) | Dmax (EGFR (HCC827 cells)) | Compound
7 | 43.1 nM | 79.6% | 28.8 nM | 84.2% | CCc1cc(Nc2ncc(Br)c(Nc3ccc4nccnc4c3P(C)(C)=O)n2)c(OC)cc1N1CCC(N2CCN(CCOCCC(=O)N[C@H](C(=O)N3C[C@H](O)C[C@H]3C(=O)NCc3ccc(-c4scnc4C)cc3)C(C)(C)C)CC2)CC1 [Example 103, (2S,4R)-1-((S)-2-(3-(2-(4-(1-(4-((5-bromo-4-((5-(dimethylphosphoryl)quinoxalin-6-yl)amino)pyrimidin-2-yl)amino)-2-ethyl-5-methoxyphenyl)piperidin-4-yl)piperazin-1-yl)ethoxy)propanamido)-3,3-dimethylbutanoyl)-4-hydroxy-N-(4-(4-methylthiazol-5-yl)benzyl)pyrrolidine-2-carboxamide]
8 | 12.2 nM | 83.7% | 16 nM | 67.2% | COc1cc(N2CCN(CC3CCN(c4ccc(C5CCC(=O)NC5=O)cc4)CC3)CC2)ccc1Nc1ncc(Cl)c(Nc2ccccc2P(C)(C)=O)n1 (stereo not drawn) [Example 105, 3-(4-(4-((4-(4-((5-chloro-4-((2-(dimethylphosphoryl)phenyl)amino)pyrimidin-2-yl)amino)-3-methoxyphenyl)piperazin-1-yl)methyl)piperidin-1-yl)phenyl)piperidine-2,6-dione]
9 | 8.7 nM | 62.6% | 6.34 nM | 76.9% | COc1cc(N2CCN(C3CN(C(=O)c4cnc(C(=O)Nc5ccc(C6CCC(=O)NC6=O)cc5)cn4)C3)CC2)c(C)cc1Nc1ncc(Br)c(Nc2ccc3nccnc3c2P(C)(C)=O)n1 (stereo not drawn) [Example 100, 5-(3-(4-(4-((5-bromo-4-((5-(dimethylphosphoryl)quinoxalin-6-yl)amino)pyrimidin-2-yl)amino)-5-methoxy-2-methylphenyl)piperazin-1-yl)azetidine-1-carbonyl)-N-(4-(2,6-dioxopiperidin-3-yl)phenyl)pyrazine-2-carboxamide]
10 | 8.32 nM | 63% | 7.06 nM | 63.2% | COc1cc(N2CCC(N3CCN(CCC4CCN(c5ccc(C6CCC(=O)NC6=O)cc5)CC4)CC3)CC2)ccc1Nc1ncc(Cl)c(Nc2ccccc2P(C)(C)=O)n1 (stereo not drawn) [Example 106, 3-(4-(4-(2-(4-(1-(4-((5-chloro-4-((2-(dimethylphosphoryl)phenyl)amino)pyrimidin-2-yl)amino)-3-methoxyphenyl)piperidin-4-yl)piperazin-1-yl)ethyl)piperidin-1-yl)phenyl)piperidine-2,6-dione]
11 | 6.53 nM | 77.5% | 12.8 nM | 81.4% | COc1cc(N2CCN(CCC3CCN(c4ccc(C5CCC(=O)NC5=O)cc4)CC3)CC2)c(C)cc1Nc1ncc(Br)c(Nc2ccc3nccnc3c2P(C)(C)=O)n1 (stereo not drawn) [Example 90, 3-(4-(4-(2-(4-(4-((5-bromo-4-((5-(dimethylphosphoryl)quinoxalin-6-yl)amino)pyrimidin-2-yl)amino)-5-methoxy-2-methylphenyl)piperazin-1-yl)ethyl)piperidin-1-yl)phenyl)piperidine-2,6-dione]
12 | 5.89 nM | 74.7% | 17.7 nM | 83.4% | COc1cc(N2CCC(N3CCN(CCc4ccc(C5CCC(=O)NC5=O)cc4)CC3)CC2)ccc1Nc1ncc(Cl)c(Nc2ccccc2P(C)(C)=O)n1 (stereo not drawn) [Example 104, 3-(4-(2-(4-(1-(4-((5-chloro-4-((2-(dimethylphosphoryl)phenyl)amino)pyrimidin-2-yl)amino)-3-methoxyphenyl)piperidin-4-yl)piperazin-1-yl)ethyl)phenyl)piperidine-2,6-dione]
